Values joined by “and” are separate entries in the source; they are usually repeats but may differ in a detail not shown here. Identical values can stand only once. Inconclusive results and toxic doses are left out. Cut-off read from the data, not from the text of the source: active = T/C of 150% or more; inactive = T/C below 125%.
Test system: L1210 leukemia ip in BDF1 mice, survival T/C
Assay: NCI In Vivo Anticancer Drug Screen. Data for tumor model L1210 Leukemia (intraperitoneal) in B6D2F1 (BDF1) mice
Conditions: endpoint: mean survival time, higher = longer survival
Procedure, shortened: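 Mice bearing the transplanted tumor received compound or vehicle. Survival of the treated group was divided by that of the vehicle-treated control group to give the ratio.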

[1] = dose: 100.0 mg/kg/injection, schedule: Q01DX001 (ip), vehicle: carboxymethylcellulose (CMC)
[2] = dose: 200.0 mg/kg/injection, schedule: Q01DX001 (ip), vehicle: carboxymethylcellulose (CMC)
[3] = dose: 100.0 mg/kg/injection, schedule: Q01DX001 (ip), vehicle: saline
[4] = dose: 100.0 mg/kg/injection, schedule: Q04DX003 (ip), vehicle: Klucel (hydroxypropylcellulose) (HPC)
[5] = dose: 200.0 mg/kg/injection, schedule: Q04DX003 (ip), vehicle: Klucel (hydroxypropylcellulose) (HPC)
[6] = dose: 400.0 mg/kg/injection, schedule: Q04DX003 (ip), vehicle: Klucel (hydroxypropylcellulose) (HPC)
[7] = dose: 100.0 mg/kg/injection, schedule: Q04DX003 (ip), vehicle: saline with Tween-80
[8] = dose: 200.0 mg/kg/injection, schedule: Q04DX003 (ip), vehicle: saline with Tween-80
[9] = dose: 400.0 mg/kg/injection, schedule: Q04DX003 (ip), vehicle: saline with Tween-80
[10] = dose: 100.0 mg/kg/injection, schedule: Q01DX009 (ip), vehicle: Klucel (hydroxypropylcellulose) (HPC)
[11] = dose: 200.0 mg/kg/injection, schedule: Q01DX009 (ip), vehicle: Klucel (hydroxypropylcellulose) (HPC)
[12] = dose: 75.0 mg/kg/injection, schedule: Q01DX001 (ip), vehicle: other
[13] = dose: 400.0 mg/kg/injection, schedule: Q01DX009 (ip), vehicle: Klucel (hydroxypropylcellulose) (HPC)

Measured: T/C

COc1cccc2c1C(=O)c1c(O)c3c(c(O)c1C2=O)C[C@@](O)(/C(C)=N\NC(=O)CO)C[C@@H]3OC1CC(N)C(O)C(C)O1 (stereo partly drawn)
inactive: dose: 0.88 mg/kg/injection, schedule: Q04DX003 (ip), vehicle: saline 119 % of control | dose: 1.33 mg/kg/injection, schedule: Q04DX003 (ip), vehicle: saline 124 % of control | dose: 3.0 mg/kg/injection, schedule: Q04DX003 (ip), vehicle: saline 120 % of control | dose: 3.5 mg/kg/injection, schedule: Q01DX009 (ip), vehicle: saline 122 % of control | dose: 6.25 mg/kg/injection, schedule: Q01DX009 (ip), vehicle: saline 105 % of control | dose: 7.0 mg/kg/injection, schedule: Q01DX009 (ip), vehicle: saline 123 % of control | dose: 12.5 mg/kg/injection, schedule: Q01DX009 (ip), vehicle: saline 116 % of control | dose: 14.0 mg/kg/injection, schedule: Q01DX009 (ip), vehicle: saline 95 % of control and 99 % of control | dose: 14.0 mg/kg/injection, schedule: Q04DX003 (ip), vehicle: saline 108 % of control | dose: 16.0 mg/kg/injection, schedule: Q04DX003 (ip), vehicle: saline 112 % of control | dose: 25.0 mg/kg/injection, schedule: Q04DX003 (ip), vehicle: saline 102 % of control | dose: 32.0 mg/kg/injection, schedule: Q04DX003 (ip), vehicle: saline 111 % of control | dose: 50.0 mg/kg/injection, schedule: Q04DX003 (ip), vehicle: saline 91 % of control

O=C(O)COc1ccc(F)c(Cl)c1
inactive: dose: 100.0 mg/kg/injection, schedule: Q04DX002 (ip), vehicle: saline 105 % of control | dose: 200.0 mg/kg/injection, schedule: Q04DX002 (ip), vehicle: saline 117 % of control | dose: 400.0 mg/kg/injection, schedule: Q04DX002 (ip), vehicle: saline 110 % of control

CCCCOP(=O)(/C=C/c1ccccc1)OCCCC
inactive: dose: 100.0 mg/kg/injection, schedule: Q04DX002 (ip), vehicle: saline with Tween-80 122 % of control | dose: 200.0 mg/kg/injection, schedule: Q04DX002 (ip), vehicle: saline with Tween-80 91 % of control

Cc1ccc(NNC(=O)C(O)C(O)C(O)C(O)CO)cc1 (stereo not drawn)
inactive: dose: 50.0 mg/kg/injection, schedule: Q01DX009 (ip), vehicle: saline 92 % of control | dose: 100.0 mg/kg/injection, schedule: Q01DX009 (ip), vehicle: saline 96 % of control | dose: 200.0 mg/kg/injection, schedule: Q01DX009 (ip), vehicle: saline 100 % of control

CCC1C(=O)CCN(C)C1c1cc2ccccc2[nH]1 (stereo not drawn)
inactive: [1] 105 % of control | [2] 91 % of control

CSc1ncnc2c1ncn2C1OC(CCc2ccccc2)C(O)C1O (stereo not drawn)
inactive: dose: 100.0 mg/kg/injection, schedule: Q01DX001 (ip), vehicle: Klucel (hydroxypropylcellulose) (HPC) 100 % of control | dose: 200.0 mg/kg/injection, schedule: Q01DX001 (ip), vehicle: Klucel (hydroxypropylcellulose) (HPC) 96 % of control | dose: 400.0 mg/kg/injection, schedule: Q01DX001 (ip), vehicle: Klucel (hydroxypropylcellulose) (HPC) 98 % of control

O=C(O)c1ccccc1C(=O)NCc1ccc(Cl)cc1Cl
inactive: dose: 100.0 mg/kg/injection, schedule: Q04DX002 (ip), vehicle: Klucel (hydroxypropylcellulose) (HPC) 88 % of control | dose: 200.0 mg/kg/injection, schedule: Q04DX002 (ip), vehicle: Klucel (hydroxypropylcellulose) (HPC) 100 % of control | dose: 400.0 mg/kg/injection, schedule: Q04DX002 (ip), vehicle: Klucel (hydroxypropylcellulose) (HPC) 98 % of control

CCCCC(=O)N/N=C/c1ccc(Cl)cc1Cl
inactive: [3] 91 % of control

OCCN=C1c2cc(Cl)ccc2-c2c(Cl)cc(Cl)cc21
inactive: [4] 103 % of control | [5] 97 % of control | [6] 87 % of control

Cc1nnnn1-c1ccc([N+](=O)[O-])cc1
inactive: [7] 101 % of control | [8] 101 % of control | [9] 93 % of control

CCCCCCCCCCCCO
inactive: [10] 88 % of control | [11] 96 % of control

O=C(CC(=O)C(F)(F)C(F)(F)C(F)(F)F)c1csc2ccccc12
inactive: dose: 8.0 mg/kg/injection, schedule: Q01DX015 (ip), vehicle: saline 87 % of control | dose: 12.5 mg/kg/injection, schedule: Q01DX009 (ip), vehicle: saline with Tween-80 109 % of control | dose: 16.0 mg/kg/injection, schedule: Q01DX015 (ip), vehicle: saline 87 % of control | dose: 25.0 mg/kg/injection, schedule: Q01DX009 (ip), vehicle: saline with Tween-80 108 % of control | dose: 32.0 mg/kg/injection, schedule: Q01DX015 (ip), vehicle: saline 87 % of control | dose: 50.0 mg/kg/injection, schedule: Q01DX009 (ip), vehicle: saline with Tween-80 96 % of control | dose: 50.0 mg/kg/injection, schedule: Q04DX003 (ip), vehicle: acetone 101 % of control | [3] 104 % of control | dose: 200.0 mg/kg/injection, schedule: Q01DX001 (ip), vehicle: saline 102 % of control

CCCCCCCCCCOC(=O)CCN1CC1
inactive: [7] 109 % of control | [8] 96 % of control

CCC[CH2][Sn]([CH2]CCC)([CH2]CCC)[CH2]C(C)(C)c1ccccc1
inactive: [12] 91 % of control

O=C1C(Cl)=C(NCc2ccco2)C(=O)c2ccccc21
inactive: dose: 77.0 mg/kg/injection, schedule: Q01DX Z (ip), vehicle: methylcellulose (MC) 89 % of control | dose: 116.0 mg/kg/injection, schedule: Q01DX Z (ip), vehicle: methylcellulose (MC) 87 % of control | dose: 175.0 mg/kg/injection, schedule: Q01DX Z (ip), vehicle: methylcellulose (MC) 95 % of control

O=c1ccn(Cc2cccc(OCCCc3ccccc3)c2)c(=O)[nH]1
inactive: [10] 96 % of control | [11] 102 % of control | [13] 97 % of control

Clc1nc(I)c(Cl)c(I)n1
inactive: dose: 6.25 mg/kg/injection, schedule: Q01DX009 (ip), vehicle: other 119 % of control | dose: 12.5 mg/kg/injection, schedule: Q01DX009 (ip), vehicle: other 101 % of control | dose: 25.0 mg/kg/injection, schedule: Q01DX009 (ip), vehicle: other 94 % of control

COc1ccc(Cc2ccccc2)c(O)c1
inactive: dose: 100.0 mg/kg/injection, schedule: Q01DX009 (ip), vehicle: other 93 % of control | dose: 100.0 mg/kg/injection, schedule: Q04DX003 (ip), vehicle: other 99 % of control | dose: 200.0 mg/kg/injection, schedule: Q01DX009 (ip), vehicle: other 111 % of control | dose: 200.0 mg/kg/injection, schedule: Q04DX003 (ip), vehicle: other 97 % of control | dose: 400.0 mg/kg/injection, schedule: Q04DX003 (ip), vehicle: other 91 % of control

CC(=O)N=c1cc(-c2ccc(Cl)cc2)ss1
inactive: [7] 90 % of control | [8] 95 % of control | [9] 98 % of control

CC(=O)C12CC3CC1C2C3
inactive: dose: 75.0 mg/kg/injection, schedule: Q04DX003 (ip), vehicle: saline 106 % of control | dose: 150.0 mg/kg/injection, schedule: Q04DX003 (ip), vehicle: saline 102 % of control | dose: 300.0 mg/kg/injection, schedule: Q04DX003 (ip), vehicle: saline 101 % of control

O=CN(N=O)c1ccccc1
inactive: [12] 104 % of control | dose: 150.0 mg/kg/injection, schedule: Q01DX001 (ip), vehicle: other 97 % of control | dose: 300.0 mg/kg/injection, schedule: Q01DX001 (ip), vehicle: other 96 % of control and 104 % of control

Cn1c(=O)c2[nH]cnc2n(C)c1=O
inactive: dose: 18.25 mg/kg/injection, schedule: Q01DX Z (ip), vehicle: carboxymethylcellulose (CMC) 105 % of control | dose: 36.5 mg/kg/injection, schedule: Q01DX Z (ip), vehicle: carboxymethylcellulose (CMC) 107 % of control | dose: 63.0 mg/kg/injection, schedule: Q01DX Z (ip), vehicle: carboxymethylcellulose (CMC) 92 % of control | [1] 98 % of control | dose: 126.0 mg/kg/injection, schedule: Q01DX Z (ip), vehicle: carboxymethylcellulose (CMC) 98 % of control | [2] 98 % of control | dose: 400.0 mg/kg/injection, schedule: Q01DX001 (ip), vehicle: carboxymethylcellulose (CMC) 96 % of control

O=S(=O)(O)CNc1cc(Cl)cc(Cl)c1
inactive: [4] 90 % of control | [11] 93 % of control | [5] 88 % of control | [13] 91 % of control | [6] 92 % of control

O=c1[nH]nnc2[nH]ncc12
inactive: [7] 102 % of control | [8] 104 % of control | [9] 98 % of control
